Values joined by “and” are separate entries in the source; they are usually repeats but may differ in a detail not shown here. Equal values may be shown once.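 Interpolation was linear, between the two tested concentrations surrounding the appropriate level; five concentrations were tested over 48 hours in 96-well plates. At the GI50, growth is halved. TGI: total growth inhibition.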 Active and inactive are the calls of the source. No stated cut-off is given here; in the data, active means GI50 below about 0.43 µM; inactive means the rest.
Key:
Assay in all cases: NCI anticancer screen, dose series, 48 h
EKVX NSCLC = system: EKVX NSCLC
UACC-62 melanoma = system: UACC-62 melanoma
K-562 leukemia = system: K-562 leukemia
NCI-H522 lung = system: NCI-H522 lung
COLO 205 colon = system: COLO 205 colon
SR leukemia = system: SR leukemia
SK-MEL-5 melanoma = system: SK-MEL-5 melanoma
HT29 colon = system: HT29 colon
OVCAR-4 ovarian = system: OVCAR-4 ovarian
DMS 114 small cell lung = system: DMS 114 small cell lung
SK-MEL-28 melanoma = system: SK-MEL-28 melanoma
SNB-78 CNS = system: SNB-78 CNS
SW-620 colon = system: SW-620 colon
KM12 colon = system: KM12 colon
OVCAR-8 ovarian = system: OVCAR-8 ovarian
OVCAR-5 ovarian = system: OVCAR-5 ovarian
SNB-19 CNS = system: SNB-19 CNS
M14 melanoma = system: M14 melanoma
MOLT-4 leukemia = system: MOLT-4 leukemia
HOP-18 NSCLC = system: HOP-18 NSCLC
HL-60(TB) leukemia = system: HL-60(TB) leukemia
SF-539 CNS = system: SF-539 CNS
CCRF-CEM leukemia = system: CCRF-CEM leukemia
HOP-92 NSCLC = system: HOP-92 NSCLC
HCT-116 colon = system: HCT-116 colon
SN12C renal = system: SN12C renal
ACHN renal = system: ACHN renal
KM20L2 colon = system: KM20L2 colon
U251 CNS = system: U251 CNS
RXF 393 renal = system: RXF 393 renal
LOX IMVI melanoma = system: LOX IMVI melanoma
M19-MEL melanoma = system: M19-MEL melanoma
SF-268 CNS = system: SF-268 CNS
OVCAR-3 ovarian = system: OVCAR-3 ovarian
786-0 renal = system: 786-0 renal
UO-31 renal = system: UO-31 renal
A549 NSCLC = system: A549 NSCLC
HCC-2998 colon = system: HCC-2998 colon
A498 renal = system: A498 renal
TK-10 renal = system: TK-10 renal
DLD-1 colon = system: DLD-1 colon
SF-295 CNS = system: SF-295 CNS
IGROV1 ovarian = system: IGROV1 ovarian
HOP-62 NSCLC = system: HOP-62 NSCLC
NCI-H460 lung = system: NCI-H460 lung
SK-OV-3 ovarian = system: SK-OV-3 ovarian
MALME-3M melanoma = system: MALME-3M melanoma
SK-MEL-2 melanoma = system: SK-MEL-2 melanoma
DMS 273 small cell lung = system: DMS 273 small cell lung
UACC-257 melanoma = system: UACC-257 melanoma
XF 498 CNS = system: XF 498 CNS
CAKI-1 renal = system: CAKI-1 renal
NCI-H226 lung = system: NCI-H226 lung
NCI-H23 lung = system: NCI-H23 lung
RPMI-8226 leukemia = system: RPMI-8226 leukemia
HCT-15 colon = system: HCT-15 colon
SNB-75 CNS = system: SNB-75 CNS

With `N/C(=N\N=C/c1c2ccccc2c(Cl)c2ccccc12)NO` the TGI (EKVX NSCLC) was 15.5 µM and 13.5 µM, the GI50 (UACC-62 melanoma) was 1.63 µM and the TGI (UACC-62 melanoma) was 4.39 µM and 3.3 µM. The GI50 (K-562 leukemia) was 3.17 µM, the GI50 (NCI-H522 lung) was 1.8 µM and the TGI (NCI-H522 lung) was 14.2 µM and 3.98 µM. The GI50 (COLO 205 colon) was 3.22 µM, the TGI (COLO 205 colon) was 14.1 µM and 14.7 µM and the outcome (SR leukemia) was “inactive”. The GI50 (SK-MEL-5 melanoma) was 2.39 µM, the TGI (SK-MEL-5 melanoma) was 16.6 µM and 6.5 µM and the GI50 (HT29 colon) was 2.84 µM. The TGI (HT29 colon) was 15.6 µM and 8.47 µM, the GI50 (OVCAR-4 ovarian) was 2.62 µM and the TGI (OVCAR-4 ovarian) was 20.4 µM and 15 µM. For the same compound, the GI50 (DMS 114 small cell lung) was 2.79 µM, the TGI (DMS 114 small cell lung) was 12.8 µM and 10.2 µM and the TGI (SK-MEL-28 melanoma) was 27.6 µM and 27.5 µM. The TGI (SNB-78 CNS) was 25.3 µM and 30.5 µM, the GI50 (SW-620 colon) was 1.86 µM and the TGI (SW-620 colon) was 18 µM and 3.68 µM. For the same compound, the GI50 (KM12 colon) was 4.01 µM, the TGI (KM12 colon) was 21.7 µM and 16 µM and the GI50 (OVCAR-8 ovarian) was 1.99 µM. The TGI (OVCAR-8 ovarian) was 18.9 µM and 4.92 µM, the GI50 (OVCAR-5 ovarian) was 2.54 µM and the TGI (OVCAR-5 ovarian) was 10.2 µM and 8.81 µM. The GI50 (SNB-19 CNS) was 7.87 µM, the TGI (SNB-19 CNS) was 24.1 µM and 21.3 µM and the GI50 (M14 melanoma) was 2.65 µM. For the same compound, the TGI (M14 melanoma) was 25.1 µM and 9.47 µM, the TGI (MOLT-4 leukemia) was 37.2 µM and the outcome (MOLT-4 leukemia) was “inactive”. The TGI (HOP-18 NSCLC) was 10.7 µM and 13.9 µM, the TGI (HL-60(TB) leukemia) was 7.31 µM and the GI50 (SF-539 CNS) was 8.44 µM. For the same compound, the TGI (SF-539 CNS) was 21.3 µM and 21.8 µM, the GI50 (CCRF-CEM leukemia) was 1.37 µM and the TGI (CCRF-CEM leukemia) was 13.7 µM. For the same compound, the GI50 (HOP-92 NSCLC) was 10.8 µM, the TGI (HOP-92 NSCLC) was 12.3 µM and 28.7 µM and the GI50 (HCT-116 colon) was 1.76 µM. For the same compound, the TGI (HCT-116 colon) was 13.8 µM and 3.36 µM, the GI50 (SN12C renal) was 2.21 µM and the TGI (SN12C renal) was 19.4 µM and 5.58 µM. For the same compound, the GI50 (ACHN renal) was 3.84 µM, the TGI (ACHN renal) was 15.8 µM and 13.8 µM and the TGI (KM20L2 colon) was 4.81 µM. The TGI (U251 CNS) was 20 µM and 20.6 µM, the GI50 (RXF 393 renal) was 4.61 µM and the TGI (RXF 393 renal) was 3.5 µM and 17.9 µM. The TGI (LOX IMVI melanoma) was 12.2 µM, the GI50 (M19-MEL melanoma) was 5.4 µM and the TGI (M19-MEL melanoma) was 19.6 µM and 18.6 µM. The GI50 (SF-268 CNS) was 10.2 µM, the TGI (SF-268 CNS) was 26 µM and 27.4 µM and the TGI (OVCAR-3 ovarian) was 14 µM. For the same compound, the GI50 (786-0 renal) was 5.63 µM, the TGI (786-0 renal) was 26.1 µM and 19.6 µM and the GI50 (UO-31 renal) was 2.36 µM. For the same compound, the TGI (UO-31 renal) was 22.5 µM and 7.44 µM, the GI50 (A549 NSCLC) was 2.25 µM and the TGI (A549 NSCLC) was 11 µM and 5.57 µM. The GI50 (HCC-2998 colon) was 1.85 µM, the TGI (HCC-2998 colon) was 13.7 µM and 3.97 µM and the TGI (A498 renal) was 29 µM. The TGI (TK-10 renal) was 24.3 µM, the TGI (DLD-1 colon) was 20.1 µM and 19.1 µM and the GI50 (SF-295 CNS) was 13 µM. The TGI (SF-295 CNS) was 10.4 µM and 26.1 µM, the TGI (IGROV1 ovarian) was 15.5 µM and 18.5 µM and the GI50 (HOP-62 NSCLC) was 5.71 µM. For the same compound, the TGI (HOP-62 NSCLC) was 27.8 µM and 22.9 µM, the GI50 (NCI-H460 lung) was 2.81 µM and the TGI (NCI-H460 lung) was 11 µM and 9.94 µM. For the same compound, the TGI (SK-OV-3 ovarian) was 10.5 µM, the TGI (MALME-3M melanoma) was 19.4 µM and the GI50 (SK-MEL-2 melanoma) was 3.61 µM. The TGI (SK-MEL-2 melanoma) was 23.3 µM and 16.9 µM, the TGI (DMS 273 small cell lung) was 3.89 µM and the GI50 (UACC-257 melanoma) was 4.25 µM. The TGI (UACC-257 melanoma) was 11.8 µM and 14.6 µM, the GI50 (XF 498 CNS) was 3.26 µM and the TGI (XF 498 CNS) was 30.5 µM and 17.1 µM. The TGI (CAKI-1 renal) was 19.5 µM and 18.5 µM, the TGI (NCI-H226 lung) was 6.86 µM and the GI50 (NCI-H23 lung) was 6.51 µM. For the same compound, the TGI (NCI-H23 lung) was 17.3 µM and 19.8 µM, the TGI (RPMI-8226 leukemia) was 26.6 µM and the outcome (RPMI-8226 leukemia) was “inactive”. The GI50 (HCT-15 colon) was 2.57 µM, the TGI (HCT-15 colon) was 19.4 µM and 6.72 µM and the TGI (SNB-75 CNS) was 25.8 µM and 32 µM.
